Laboratory results taken from ChEMBL document CHEMBL4507268 (2021).

Assays:
[1] = biological target: Proto-oncogene tyrosine-protein kinase receptor Ret (Homo sapiens) (UniProt P07949); details: Compound concentration 1000.0 nM
[2] = biological target: Serine/threonine-protein kinase MRCK alpha (Homo sapiens) (UniProt Q5VT25); details: Compound concentration 1000.0 nM
[3] = biological target: Mitogen-activated protein kinase 15 (Homo sapiens) (UniProt Q8TD08); details: Compound concentration 1000.0 nM
Mitogen-activated protein kinase 15 (Homo sapiens), sequence (Q8TD08 whole entry): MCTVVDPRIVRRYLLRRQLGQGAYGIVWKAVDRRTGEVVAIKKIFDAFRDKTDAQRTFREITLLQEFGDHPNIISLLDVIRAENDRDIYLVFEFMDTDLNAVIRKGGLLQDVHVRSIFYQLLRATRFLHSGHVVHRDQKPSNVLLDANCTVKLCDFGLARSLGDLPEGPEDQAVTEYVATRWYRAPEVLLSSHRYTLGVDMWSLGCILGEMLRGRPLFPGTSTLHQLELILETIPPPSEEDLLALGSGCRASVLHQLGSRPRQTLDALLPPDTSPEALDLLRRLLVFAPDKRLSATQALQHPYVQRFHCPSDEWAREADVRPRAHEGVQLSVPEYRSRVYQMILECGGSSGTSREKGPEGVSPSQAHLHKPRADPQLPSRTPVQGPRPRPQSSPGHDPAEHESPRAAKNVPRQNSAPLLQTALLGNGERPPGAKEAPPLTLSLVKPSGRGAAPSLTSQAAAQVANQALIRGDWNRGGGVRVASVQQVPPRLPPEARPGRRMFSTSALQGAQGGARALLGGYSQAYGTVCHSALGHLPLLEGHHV

[4] = biological target: Serine/threonine-protein kinase PAK 6 (Homo sapiens) (UniProt Q9NQU5); details: Compound concentration 1000.0 nM
Serine/threonine-protein kinase PAK 6 (Homo sapiens), sequence (Q9NQU5 whole entry, looked up): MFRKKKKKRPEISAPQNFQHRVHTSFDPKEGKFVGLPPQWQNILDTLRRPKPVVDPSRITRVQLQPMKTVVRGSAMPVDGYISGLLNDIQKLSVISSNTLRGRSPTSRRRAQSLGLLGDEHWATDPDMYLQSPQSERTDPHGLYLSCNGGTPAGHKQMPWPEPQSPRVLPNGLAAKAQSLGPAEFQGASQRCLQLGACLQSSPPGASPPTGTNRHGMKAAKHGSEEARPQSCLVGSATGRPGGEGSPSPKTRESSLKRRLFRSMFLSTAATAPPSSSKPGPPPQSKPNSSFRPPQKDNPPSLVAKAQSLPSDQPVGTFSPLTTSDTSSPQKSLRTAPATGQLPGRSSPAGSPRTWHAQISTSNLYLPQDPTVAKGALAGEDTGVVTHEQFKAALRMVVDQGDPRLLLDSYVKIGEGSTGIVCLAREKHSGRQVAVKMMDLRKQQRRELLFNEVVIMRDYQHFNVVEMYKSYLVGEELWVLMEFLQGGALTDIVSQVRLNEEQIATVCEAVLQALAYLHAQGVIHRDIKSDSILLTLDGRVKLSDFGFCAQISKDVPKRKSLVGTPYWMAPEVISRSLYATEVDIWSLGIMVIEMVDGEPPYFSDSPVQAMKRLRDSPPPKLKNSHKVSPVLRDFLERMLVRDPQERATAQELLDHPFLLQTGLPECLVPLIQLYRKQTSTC

[5] = biological target: Myotonin-protein kinase (Homo sapiens) (UniProt Q09013); details: Compound concentration 1000.0 nM
Myotonin-protein kinase (Homo sapiens), sequence (Q09013 whole entry): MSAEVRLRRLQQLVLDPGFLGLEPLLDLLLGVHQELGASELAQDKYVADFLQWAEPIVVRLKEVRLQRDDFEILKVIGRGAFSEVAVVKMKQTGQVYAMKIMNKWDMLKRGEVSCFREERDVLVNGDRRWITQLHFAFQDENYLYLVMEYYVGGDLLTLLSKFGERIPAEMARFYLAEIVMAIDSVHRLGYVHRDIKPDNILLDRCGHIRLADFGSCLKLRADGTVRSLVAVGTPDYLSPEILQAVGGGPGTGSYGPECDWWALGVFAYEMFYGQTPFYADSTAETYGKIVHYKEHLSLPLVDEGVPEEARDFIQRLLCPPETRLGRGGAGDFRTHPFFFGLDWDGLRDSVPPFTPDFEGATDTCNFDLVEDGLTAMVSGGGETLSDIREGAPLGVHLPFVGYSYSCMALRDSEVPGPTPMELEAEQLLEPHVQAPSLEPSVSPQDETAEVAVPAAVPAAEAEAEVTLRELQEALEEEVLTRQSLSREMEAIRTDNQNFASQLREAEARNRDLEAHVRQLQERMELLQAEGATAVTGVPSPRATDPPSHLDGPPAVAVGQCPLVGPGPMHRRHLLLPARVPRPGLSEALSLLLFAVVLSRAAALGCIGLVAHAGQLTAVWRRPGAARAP

[6] = biological target: Epidermal growth factor receptor (Homo sapiens) (UniProt P00533); details: Compound concentration 1000.0 nM
Epidermal growth factor receptor (Homo sapiens), sequence (P00533 whole entry): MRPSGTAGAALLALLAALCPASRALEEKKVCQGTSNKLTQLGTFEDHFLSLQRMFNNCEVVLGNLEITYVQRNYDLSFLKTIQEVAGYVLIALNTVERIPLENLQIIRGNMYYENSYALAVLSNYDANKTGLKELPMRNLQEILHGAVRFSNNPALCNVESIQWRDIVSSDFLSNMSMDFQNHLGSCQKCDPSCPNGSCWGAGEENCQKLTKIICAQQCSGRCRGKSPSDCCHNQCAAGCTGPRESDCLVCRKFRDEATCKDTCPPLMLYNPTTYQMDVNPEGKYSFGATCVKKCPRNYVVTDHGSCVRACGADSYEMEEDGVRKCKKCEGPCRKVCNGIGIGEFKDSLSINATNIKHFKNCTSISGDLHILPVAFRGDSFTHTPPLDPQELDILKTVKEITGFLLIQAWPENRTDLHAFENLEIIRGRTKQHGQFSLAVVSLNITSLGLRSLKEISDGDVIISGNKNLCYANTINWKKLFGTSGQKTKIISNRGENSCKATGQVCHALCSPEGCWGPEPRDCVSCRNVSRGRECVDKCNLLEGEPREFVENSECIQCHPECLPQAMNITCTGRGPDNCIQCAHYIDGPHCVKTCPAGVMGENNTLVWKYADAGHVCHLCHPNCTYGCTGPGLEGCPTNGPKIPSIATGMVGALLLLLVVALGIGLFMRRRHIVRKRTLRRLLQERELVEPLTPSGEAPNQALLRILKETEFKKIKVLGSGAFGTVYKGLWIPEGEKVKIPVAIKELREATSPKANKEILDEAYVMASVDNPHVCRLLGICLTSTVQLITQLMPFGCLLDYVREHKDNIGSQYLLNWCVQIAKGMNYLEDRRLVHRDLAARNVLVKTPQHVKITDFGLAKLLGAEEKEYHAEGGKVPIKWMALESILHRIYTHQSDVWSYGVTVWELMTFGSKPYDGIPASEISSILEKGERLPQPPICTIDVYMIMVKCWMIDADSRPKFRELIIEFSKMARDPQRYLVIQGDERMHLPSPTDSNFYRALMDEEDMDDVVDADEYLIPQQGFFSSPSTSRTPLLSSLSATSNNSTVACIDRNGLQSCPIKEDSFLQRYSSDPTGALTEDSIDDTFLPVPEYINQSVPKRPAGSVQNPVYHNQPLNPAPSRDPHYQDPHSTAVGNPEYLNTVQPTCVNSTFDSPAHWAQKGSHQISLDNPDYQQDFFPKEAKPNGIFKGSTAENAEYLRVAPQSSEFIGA

[7] = test system: Tyrosine-protein kinase ABL1 (Homo sapiens), P00519 [Y253F]; details: Compound concentration 1000.0 nM
[8] = biological target: T1, Serine/threonine-protein kinase TAO2 (Homo sapiens) (UniProt Q9UL54); details: Compound concentration 1000.0 nM
T1 sequence (whole entry): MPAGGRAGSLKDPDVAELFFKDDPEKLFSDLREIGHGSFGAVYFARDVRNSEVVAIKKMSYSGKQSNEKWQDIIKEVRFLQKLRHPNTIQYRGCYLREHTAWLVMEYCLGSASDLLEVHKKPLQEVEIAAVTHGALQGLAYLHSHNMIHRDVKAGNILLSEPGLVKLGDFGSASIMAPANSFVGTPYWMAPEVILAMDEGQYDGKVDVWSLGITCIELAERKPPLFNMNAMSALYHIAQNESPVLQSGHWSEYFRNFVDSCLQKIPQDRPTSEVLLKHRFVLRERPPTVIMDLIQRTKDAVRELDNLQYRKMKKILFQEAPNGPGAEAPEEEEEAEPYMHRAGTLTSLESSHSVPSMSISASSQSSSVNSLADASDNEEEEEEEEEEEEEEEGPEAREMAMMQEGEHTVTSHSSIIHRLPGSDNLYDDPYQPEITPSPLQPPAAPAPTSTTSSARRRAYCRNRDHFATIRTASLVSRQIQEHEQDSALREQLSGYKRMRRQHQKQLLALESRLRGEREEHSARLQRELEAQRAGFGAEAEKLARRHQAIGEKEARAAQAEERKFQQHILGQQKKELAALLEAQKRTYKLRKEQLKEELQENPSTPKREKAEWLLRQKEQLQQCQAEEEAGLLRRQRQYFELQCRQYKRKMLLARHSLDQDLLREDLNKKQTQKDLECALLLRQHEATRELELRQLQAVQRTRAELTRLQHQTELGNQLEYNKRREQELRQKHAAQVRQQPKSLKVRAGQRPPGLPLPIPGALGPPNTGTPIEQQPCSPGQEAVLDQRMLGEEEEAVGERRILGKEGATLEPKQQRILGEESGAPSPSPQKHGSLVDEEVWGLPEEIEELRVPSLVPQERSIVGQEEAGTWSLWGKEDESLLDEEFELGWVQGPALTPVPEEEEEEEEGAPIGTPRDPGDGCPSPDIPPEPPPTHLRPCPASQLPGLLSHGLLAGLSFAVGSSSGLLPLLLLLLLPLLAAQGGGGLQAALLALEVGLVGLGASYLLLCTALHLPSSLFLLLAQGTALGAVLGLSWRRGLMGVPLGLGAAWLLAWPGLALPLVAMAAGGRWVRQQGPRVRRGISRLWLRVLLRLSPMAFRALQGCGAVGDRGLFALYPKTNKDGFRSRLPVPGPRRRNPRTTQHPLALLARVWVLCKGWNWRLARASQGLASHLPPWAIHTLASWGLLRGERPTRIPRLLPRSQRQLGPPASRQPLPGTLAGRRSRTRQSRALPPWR

[9] = biological target: Serine/threonine-protein kinase tousled-like 2 (Homo sapiens) (UniProt Q86UE8); details: Compound concentration 1000.0 nM
[10] = biological target: Microtubule-associated serine/threonine-protein kinase 1 (Homo sapiens) (UniProt Q9Y2H9); details: Compound concentration 1000.0 nM
[11] = biological target: T2, Rhodopsin kinase GRK7 (Homo sapiens) (UniProt Q8WTQ7); details: Compound concentration 1000.0 nM
T2 sequence (whole entry): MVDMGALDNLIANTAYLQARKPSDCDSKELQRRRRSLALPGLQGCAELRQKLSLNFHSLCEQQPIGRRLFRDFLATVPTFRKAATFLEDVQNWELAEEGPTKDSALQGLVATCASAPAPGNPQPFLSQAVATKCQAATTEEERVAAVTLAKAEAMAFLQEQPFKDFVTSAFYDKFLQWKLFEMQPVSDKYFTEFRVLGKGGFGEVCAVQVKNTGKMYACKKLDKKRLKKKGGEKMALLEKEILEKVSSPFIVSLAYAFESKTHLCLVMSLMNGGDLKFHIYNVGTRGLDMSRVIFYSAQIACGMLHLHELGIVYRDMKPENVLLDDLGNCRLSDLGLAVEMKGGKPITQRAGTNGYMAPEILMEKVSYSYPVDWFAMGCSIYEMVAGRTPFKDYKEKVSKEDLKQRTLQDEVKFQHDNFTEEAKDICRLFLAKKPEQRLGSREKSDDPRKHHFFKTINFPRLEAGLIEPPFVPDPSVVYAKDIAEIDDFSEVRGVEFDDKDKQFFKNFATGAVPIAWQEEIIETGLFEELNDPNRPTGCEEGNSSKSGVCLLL

[12] = biological target: 5-hydroxytryptamine receptor 6 (Homo sapiens) (UniProt P50406); details: Compound concentration 10.0 uM
[13] = test system: ALK tyrosine kinase receptor (Homo sapiens), Q9UM73 [L1196M]; details: Compound concentration 1000.0 nM
ALK tyrosine kinase receptor (Homo sapiens), Q9UM73 [L1196M], sequence (Q9UM73 whole entry L1196M, looked up): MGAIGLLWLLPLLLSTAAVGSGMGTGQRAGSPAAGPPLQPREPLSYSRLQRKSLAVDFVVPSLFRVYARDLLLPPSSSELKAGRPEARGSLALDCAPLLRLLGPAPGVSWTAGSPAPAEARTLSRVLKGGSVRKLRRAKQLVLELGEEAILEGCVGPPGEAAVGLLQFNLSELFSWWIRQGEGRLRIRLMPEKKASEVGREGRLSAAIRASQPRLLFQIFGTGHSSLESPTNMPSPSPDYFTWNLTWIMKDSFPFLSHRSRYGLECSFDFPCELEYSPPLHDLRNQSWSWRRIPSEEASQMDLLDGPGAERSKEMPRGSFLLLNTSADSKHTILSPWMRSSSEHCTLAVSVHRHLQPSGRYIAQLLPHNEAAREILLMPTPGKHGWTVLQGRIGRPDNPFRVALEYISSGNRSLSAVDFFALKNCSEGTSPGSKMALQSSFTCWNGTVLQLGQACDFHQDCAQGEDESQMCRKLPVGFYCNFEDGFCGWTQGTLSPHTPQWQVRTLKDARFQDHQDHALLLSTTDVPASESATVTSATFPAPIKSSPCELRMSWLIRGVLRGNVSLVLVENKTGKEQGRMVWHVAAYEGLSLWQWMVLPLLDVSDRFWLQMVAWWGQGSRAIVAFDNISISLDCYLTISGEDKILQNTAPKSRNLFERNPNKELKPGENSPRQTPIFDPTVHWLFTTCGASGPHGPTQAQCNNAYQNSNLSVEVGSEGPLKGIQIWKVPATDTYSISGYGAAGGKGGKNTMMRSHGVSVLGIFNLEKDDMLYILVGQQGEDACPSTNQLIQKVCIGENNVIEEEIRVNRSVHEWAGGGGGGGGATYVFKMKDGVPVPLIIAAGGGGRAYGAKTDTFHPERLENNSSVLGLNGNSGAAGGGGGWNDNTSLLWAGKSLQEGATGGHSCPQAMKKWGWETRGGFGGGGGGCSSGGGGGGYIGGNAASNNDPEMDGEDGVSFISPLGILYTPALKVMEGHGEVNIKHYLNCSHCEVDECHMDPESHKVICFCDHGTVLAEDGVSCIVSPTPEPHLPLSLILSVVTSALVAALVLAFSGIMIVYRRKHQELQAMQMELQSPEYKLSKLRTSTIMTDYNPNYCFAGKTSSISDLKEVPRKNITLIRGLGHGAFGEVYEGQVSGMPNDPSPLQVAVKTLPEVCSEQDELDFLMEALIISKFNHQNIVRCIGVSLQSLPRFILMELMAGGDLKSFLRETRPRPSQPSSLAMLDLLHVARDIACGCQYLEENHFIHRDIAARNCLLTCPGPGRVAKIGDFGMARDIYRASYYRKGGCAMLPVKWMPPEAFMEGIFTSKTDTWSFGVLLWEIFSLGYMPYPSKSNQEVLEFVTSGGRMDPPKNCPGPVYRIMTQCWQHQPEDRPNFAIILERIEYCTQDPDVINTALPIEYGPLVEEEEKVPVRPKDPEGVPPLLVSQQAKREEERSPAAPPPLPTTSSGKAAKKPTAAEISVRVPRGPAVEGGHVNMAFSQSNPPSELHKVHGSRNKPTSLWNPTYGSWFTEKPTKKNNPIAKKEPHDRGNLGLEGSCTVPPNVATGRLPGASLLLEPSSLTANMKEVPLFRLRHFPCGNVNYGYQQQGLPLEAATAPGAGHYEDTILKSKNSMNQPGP

[14] = test system: Receptor-type tyrosine-protein kinase FLT3 (Homo sapiens), P36888 [K663Q]; details: Compound concentration 1000.0 nM
[15] = biological target: T3, Dual specificity mitogen-activated protein kinase kinase 6 (Homo sapiens) (UniProt P52564); details: Compound concentration 1000.0 nM
T3 sequence (whole entry): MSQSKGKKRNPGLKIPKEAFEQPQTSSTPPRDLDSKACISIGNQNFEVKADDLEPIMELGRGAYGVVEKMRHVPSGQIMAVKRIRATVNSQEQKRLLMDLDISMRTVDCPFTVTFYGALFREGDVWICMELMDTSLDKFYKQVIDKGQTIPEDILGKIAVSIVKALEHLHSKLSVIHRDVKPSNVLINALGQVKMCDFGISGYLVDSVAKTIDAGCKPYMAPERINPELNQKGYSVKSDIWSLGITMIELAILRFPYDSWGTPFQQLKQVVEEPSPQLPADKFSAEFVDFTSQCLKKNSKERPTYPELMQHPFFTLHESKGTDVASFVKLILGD

[16] = biological target: Phosphatidylinositol 4-phosphate 5-kinase type-1 gamma (Homo sapiens) (UniProt O60331); details: Compound concentration 1000.0 nM

Cc1nc(C2CCN(C(=O)c3ccc(OC(F)(F)F)cc3N)CC2)c2ncc(N3CCN(C)CC3)cc2n1 [BAY-693]
inactive: residual activity [1] 100% | residual activity [2] 99% | residual activity [3] 100% | residual activity [4] 93% | residual activity [5] 100% | residual activity [6] 86% | residual activity [7] 98% | residual activity [8] 100% | residual activity [9] 100% | residual activity [10] 100% | residual activity [11] 81% | inhibition [12] -1.38% | residual activity [13] 98% | residual activity [14] 100% | residual activity [15] 97% | residual activity [16] 94%

CN1CCN(c2cnc3c(C4CCN(C(=O)c5ccc(OC(F)(F)F)cc5N)CC4)ncnc3c2)CC1 [BAY-885]
inactive: residual activity [1] 100% | residual activity [2] 100% | residual activity [3] 100% | residual activity [4] 100% | residual activity [5] 89% | residual activity [6] 99% | residual activity [7] 100% | residual activity [8] 100% | residual activity [9] 89% | residual activity [10] 100% | residual activity [11] 87% | inhibition [12] -4.69% | residual activity [13] 100% | residual activity [14] 100% | residual activity [15] 88% | residual activity [16] 100%
